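Following 48 hours of exposure in 96-well plates, responses at five concentrations were used to interpolate endpoints linearly. GI50 is the concentration that inhibits growth by half.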 The source made the active and inactive calls. Rule as the data show it: active = GI50 up to about 1.1 µM and inactive = higher.
Assays:
Assay in all cases: NCI tumour cell line growth inhibition, 48 h
SN12C = test system: SN12C
Malme-3M = test system: Malme-3M
OVCAR-5 = test system: OVCAR-5
RPMI-8226 = test system: RPMI-8226
SK-MEL-2 = test system: SK-MEL-2
ACHN = test system: ACHN
OVCAR-8 = test system: OVCAR-8
K562 = test system: K562
NCI-H522 = test system: NCI-H522
PC-3 = test system: PC-3
MDA-MB-231 = test system: MDA-MB-231
MOLT-4 = test system: MOLT-4
SF-268 = test system: SF-268
SK-MEL-28 = test system: SK-MEL-28
HL-60 = test system: HL-60
MDA-N = test system: MDA-N
OVCAR-4 = test system: OVCAR-4
TK-10 = test system: TK-10
A549 = test system: A549
Hs-578T = test system: Hs-578T

Structure (SMILES) | GI50 (SN12C) | GI50 (Malme-3M) | GI50 (OVCAR-5) | GI50 (RPMI-8226) | GI50 (SK-MEL-2) | GI50 (ACHN) | GI50 (OVCAR-8) | GI50 (K562) | GI50 (NCI-H522) | GI50 (PC-3) | GI50 (MDA-MB-231) | GI50 (MOLT-4) | GI50 (SF-268) | GI50 (SK-MEL-28) | GI50 (HL-60) | GI50 (MDA-N) | GI50 (OVCAR-4) | GI50 (TK-10) | GI50 (A549) | GI50 (Hs-578T)
CCOC(=O)C12C(=O)CCN1CCc1ccccc1C2C (stereo not given) | > 100 µM (inactive) | > 100 µM (inactive) | > 100 µM (inactive) | > 100 µM (inactive) | > 100 µM (inactive) | > 100 µM (inactive) | > 100 µM (inactive) | > 100 µM (inactive) | > 100 µM (inactive) | > 100 µM (inactive) | > 100 µM (inactive) | > 100 µM (inactive) | > 100 µM (inactive) | > 100 µM (inactive) | > 100 µM (inactive) | > 100 µM (inactive) | > 100 µM (inactive) | > 100 µM (inactive) | > 100 µM (inactive) | > 100 µM (inactive)
CC(=O)NN/C=N/C(C#N)=C(\N)C#N | > 100 µM (inactive) | > 100 µM (inactive) | > 100 µM (inactive) | > 100 µM (inactive) | > 100 µM (inactive) | > 100 µM (inactive) | > 100 µM (inactive) | > 100 µM (inactive) | > 100 µM (inactive) | > 100 µM (inactive) | > 100 µM (inactive) | > 100 µM (inactive) | > 100 µM (inactive) | > 100 µM (inactive) | > 100 µM (inactive) | > 100 µM (inactive) | > 100 µM (inactive) | > 100 µM (inactive) | > 100 µM (inactive) | > 100 µM (inactive)
Cc1c(C)c2c(c(N)c1C#N)C(=O)N(N)C2=O | > 100 µM (inactive) | > 100 µM (inactive) | > 100 µM (inactive) | > 100 µM (inactive) | > 100 µM (inactive) | > 100 µM (inactive) | > 100 µM (inactive) | > 100 µM (inactive) | > 100 µM (inactive) | > 100 µM (inactive) | > 100 µM (inactive) | 61.7 µM (inactive) | > 100 µM (inactive) | > 100 µM (inactive) | > 100 µM (inactive) | > 100 µM (inactive) | > 100 µM (inactive) | > 100 µM (inactive) | > 100 µM (inactive) | > 100 µM (inactive)
O=C(O)c1ccc(Nc2nc3ccc(C(F)(F)F)cc3nc2C(=O)O)cc1 | > 100 µM (inactive) | > 100 µM (inactive) | > 100 µM (inactive) | > 100 µM (inactive) | > 100 µM (inactive) | > 100 µM (inactive) | > 100 µM (inactive) | > 100 µM (inactive) | > 100 µM (inactive) | > 100 µM (inactive) | > 100 µM (inactive) | > 100 µM (inactive) | > 100 µM (inactive) | > 100 µM (inactive) | > 100 µM (inactive) | > 100 µM (inactive) | > 100 µM (inactive) | > 100 µM (inactive) | > 100 µM (inactive) | > 100 µM (inactive)
COC(=O)C#Cc1ccc([N+](=O)[O-])cc1 | 1.67 µM (inactive) | 2.27 µM (inactive) | 2.16 µM (inactive) | 0.665 µM (active) | 3.69 µM (inactive) | 1.41 µM (inactive) | 2.55 µM (inactive) | 2.47 µM (inactive) | 1.75 µM (inactive) | 3.73 µM (inactive) | 2.09 µM (inactive) | 0.659 µM (active) | 4.16 µM (inactive) | 1.96 µM (inactive) | 1.77 µM (inactive) | 2.54 µM (inactive) | 1.7 µM (inactive) | 1.89 µM (inactive) | 2.74 µM (inactive) | 2.84 µM (inactive)
CCOC(=O)C1=C(C)N(Cc2ccccc2)C2(O)C=CC(=O)C3C(=O)N(c4ccccc4)C(=O)C132 (stereo not given) | 2.56 µM (inactive) | 2.81 µM (inactive) | 3.43 µM (inactive) | 1.03 µM (active) | 1.98 µM (inactive) | 1.63 µM (inactive) | 1.23 µM (inactive) | 3.66 µM (inactive) | 1.57 µM (inactive) | 1.92 µM (inactive) | 3.96 µM (inactive) | 2.11 µM (inactive) | 2.54 µM (inactive) | 1.82 µM (inactive) | 1.99 µM (inactive) | 3.61 µM (inactive) | 1.98 µM (inactive) | 3.44 µM (inactive) | 2.86 µM (inactive) | 5.4 µM (inactive)
COC(=O)[C@H](C)[C@@H]1CC[C@](C)(CCC2=C(C)CCCC2(C)C)OO1 | > 25 µM (inactive) | > 25 µM (inactive) | > 25 µM (inactive) | > 25 µM (inactive) | > 25 µM (inactive) | > 25 µM (inactive) | > 25 µM (inactive) | 14.3 µM (inactive) | 16.1 µM (inactive) | > 25 µM (inactive) | > 25 µM (inactive) | > 25 µM (inactive) | > 25 µM (inactive) | > 25 µM (inactive) | 12 µM (inactive) | > 25 µM (inactive) | > 25 µM (inactive) | > 25 µM (inactive) | > 25 µM (inactive) | > 25 µM (inactive)
O=C(O)C1OC(n2cc(F)c(=O)[nH]c2=O)CC1O (stereo not given) | 17.7 µM (inactive) | > 100 µM (inactive) | > 100 µM (inactive) | 61.7 µM (inactive) | > 100 µM (inactive) | 2.46 µM (inactive) | 17.5 µM (inactive) | > 86.1 µM (inactive) | 25.9 µM (inactive) | 51.8 µM (inactive) | > 39.1 µM (inactive) | 7.73 µM (inactive) | 3.35 µM (inactive) | 53.1 µM (inactive) | 30.8 µM (inactive) | > 97.3 µM (inactive) | > 100 µM (inactive) | > 100 µM (inactive) | 2.97 µM (inactive) | > 78.7 µM (inactive)

Source: ChEMBL document CHEMBL1201862, “PubChem BioAssay data set” (2004)
